The test system of data set [1] is adhesion of Ramos cells to VCAM-1. The data set is described as follows: Adhesion of Ramos cells to immobilized VCAM-1 (domains 1-3). It is filed as cell-based. The following applies: Homo sapiens. The text has this:
In Vitro Assay: Adhesion of Ramos Cells to Immobilized VCAM-1 (Domains 1-3) Preparation of VCAM-1 (Extracellular Domains 1-3)
Complementary DNA (cDNA) encoding 7-domain form of VCAM-1 (GenBank accession #M60335) was obtained using Rapid-Screen™ cDNA library panels (OriGene Technologies, Inc) at Takara Gene Analysis Center (Shiga, Japan). The primers used were 5′-CCAAGGCAGAGTACGCAAAC-3′ (sense) and 5′-TGGCAGGTATTATTAAGGAG-3′ (antisense). PCR amplification of the 3-domain VCAM-1 cDNA was perform using Pfu DNA polymerase (Stratagene) with the following sets of primers: (U-VCAMd1-3) 5′-CCATATGGTACCTGATCAATTTAAAATCGAGACCACCCCAGAA-3′; (L-VCAMdl-3) 5-CCATATAGCAATCCTAGGTCCAGGGGAGATCTCAACAGTAAA-3′. PCR cycle was 94° C. for 45 sec, 55° C. for 45 sec, 72° C. for 2 min, repeating 15 cycles. After the purification of the PCR product, the fragment was digested with KpnI-AvrII. The digested fragment was ligated into pBluescript IISK(−) (Strategene), which was linearized by digesting with KpnI-XhoI. The ligation was followed by transformation to a Dam/Dcm methylase-free E. coli strain SCS110 (Strategene) to create the donor plasmid […]. To direct VCAM-1 molecule into the insect cell secretory pathway, the VCAM-1 coding sequence was fused to signal peptide sequence of honeybee melittin. The resulting melittin-VCAM fusion was placed in correct orientation to the baculovirus polyhedrin promoter. Baculovirus transfer vector containing first 3-domain form VCAM-1 (pH10) was constructed by ligation of 0.9 kb fragment from AvrII/Klenow/BclI digests of pH7 into SalI/Klenow/BamHI digests of pMelBacB (Invitrogen). Recombinant baculovirus was generated by using Bac-N-Blue™ Transfection kit (Invitrogen) according to the manufacture's instruction. The recombinant virus was amplified by infection to High-Five™ insect cells for 5-6 days, and virus titer was determined by plaque assay.
High-Five™ insect cells were pelleted in a 225 ml conical tube by centrifugation at 1000 rpm for 5 min. After discarding the supernatant, the pellet was resuspended in 1.5×10^9 pfu (MOI=5) of high-titer virus solution, followed by incubation for 1.5 hours at room temperature. The cells were pelleted again and washed once in fresh Express Five™ serum free medium. The cells were pelleted again and finally, resuspended in 200 ml of fresh Express Five TM medium, transferred to a 1,000 ml shaker flask, and incubated in a shaker at 27° C., 130 rpm, for 48 hours before the culture supernatant was collected. The purification of 3-domain form of VCAM-1 from the culture supernatant was performed by one-step anion exchange chromatography. Protein concentration was determined by using Coomassie protein assay reagent (Pierce) according to the manufacture's instruction.
Preparation of VCAM-1 Coated Microtiter Plates
Recombinant human VCAM-1 (extracellular domains 1-3) was dissolved at 1.0 μg/ml in PBS. Each well of the microtiter plates (Nalge Nunc International, Fluoronunc Cert, 437958) was coated with 100 μl of substrate or for background control with buffer alone for 15 hours at 4 C. After discarding the substrate solution, the wells were blocked using 150 μl per well of block solution (Kirkegaard Perry Laboratories, 50-61-01) for 90 minutes. The plate was washed with wash buffer containing 24 mM Tris-HCl (pH 7.4), 137 mM NaCl, […] and 2 mM MnCl2 just before addition of the assay.
In Vitro Assay using Ramos Cells
Preparation of Fluorescence Labeled Ramos Cells:
Ramos cells (American Type Culture Collection, Clone CRL-1596) were cultured in RPMI 1640 medium (Nikken Bio Medical Laboratory, CM1101) supplemented with 10% fetal bovine serum (Hyclone, A-1119-L), 100 U/ml penicilin (Gibco BRL, 15140-122) and 100 μg/ml streptomycin (Gibco BRL, 15140-122) in a humidified incubator at 37° C. with 5% CO2. […]

[2] abbreviates: observed IC50 value ranges, Table 4 does not say whether Ramos-VCAM-1 or Jurkat-VCAM-1, read-out: IC50.

SMILES strings stand for the structures. Like-named read-outs stand apart in the source and are kept apart here.

One may read the IC50 as the midpoint of a concentration-inhibition curve. For orientation: melting point means the temperature, or range, at which the solid turns liquid. In turn, `Cc1ccccc1NC(=O)Nc1ccc(CC(=O)NC(CC(C)C)C(=O)Nc2ccc(C(=O)O)cc2)cc1` (stereo not shown) [Example 37] displayed a melting point of 219 to 223 °C. Further, the IC50 in data set [1] (Ramos) is < 500 nM.
`COCCCN(CC(=O)Nc1ccc(C(=O)O)cc1)C(=O)Cc1ccc(NC(=O)Nc2ccccc2C)cc1` [Example 38] gave a melting point of 210 to 218 °C. Also, the IC50 in data set [1] (Ramos) was < 500 nM.
In turn, `Cc1ccccc1NC(=O)Nc1ccc(CC(=O)NCC(=O)Nc2ccc(C(=O)O)cc2)cc1` [Example 39, 4-[(N-{[4-({[(2-methylphenyl)amino]carbonyl}amino)phenyl]acetyl}glycyl)amino]benzoic acid] yielded a melting point of 268 to 271 °C. In data set [1] (Ramos), the IC50 was < 500 nM.
With `Cc1ccccc1NC(=O)Nc1ccc(CC(=O)NC2CCCN(c3ccc(C(=O)O)cc3)C2)cc1` (stereo not shown) [Example 49, 4-[3-({[4-({[(2-methylphenyl)amino]carbonyl}amino)phenyl]acetyl}amino)-1-piperidinyl]benzoic acid], the melting point is 236 to 238 °C. Moreover, the IC50 in data set [1] (Ramos) was < 500 nM.
Compound `Cc1ccccc1NC(=O)Nc1ccc(CC(=O)NC2CCN(c3ccc(C(=O)O)cc3)C2)cc1` (stereo not shown) [Example 50, 4-[3-({[4-({[(2-methylphenyl)amino]carbonyl}amino)phenyl]acetyl}amino)-1-pyrrolidinyl]benzoic acid] displayed a melting point of 239 to 242 °C. Moreover, the IC50 in data set [1] (Ramos) is < 500 nM.
On the same counts, the results for `Cc1ccccc1NC(=O)Nc1ccc(CC(=O)NCC(=O)N(CC(C)C)c2ccc(C(=O)O)cc2)cc1` [Example 51, 4-[isobutyl(N-{[4-({[(2-methylphenyl)amino]carbonyl}amino)phenyl]acetyl}glycyl)amino]benzoic acid] are 131 to 132 °C and > 10000 nM.
Regarding `COCCCN(CC(=O)N(CC(C)C)c1ccc(C(=O)O)cc1)C(=O)Cc1ccc(NC(=O)Nc2ccccc2C)cc1` [Example 52, 4-[isobutyl(N-(3-methoxypropyl)-V-{[4-({[(2-methylphenyl)amino]carbonyl}amino)phenyl]acetyl}glycyl)amino]benzoic acid], the melting point was in the range of 76 to 76.5 °C. Also, in data set [1] (Ramos), the IC50 is > 10000 nM.
`COCCCN(CC(=O)N(C)c1ccc(C(=O)O)cc1)C(=O)Cc1ccc(NC(=O)Nc2ccccc2C)cc1` [Example 53, 4-[(N-(3-methoxypropyl)-N-{[4-({[(2-methylphenyl)amino]carbonyl}amino)phenyl]acetyl}glycyl)(methyl)amino]benzoic acid] returned a melting point of 63 to 64 °C. Moreover, the IC50 in data set [1] (Ramos) was in the range of 500 to 2000 nM.
Regarding `Cc1ccccc1NC(=O)Nc1ccc(CC(=O)N[C@@H](CCCCN)C(=O)Nc2ccc(C(=O)O)cc2)cc1.O=C(O)C(F)(F)F` [Example 53a], the melting point lay in the range of 168 to 169 °C. Besides, the concentration for half-maximal inhibition (IC50) in data set [1] (setting [2]) was < 500 nM.
For the compound `Cc1ccccc1NC(=O)Nc1ccc(CC(=O)N[C@H](CCCCN)C(=O)Nc2ccc(C(=O)O)cc2)cc1.O=C(O)C(F)(F)F` [Example 54, 4-[(N^2-{[4-({[(2-methylphenyl)amino]carbonyl}amino)phenyl]acetyl}-D-lysyl)amino]benzoic acid trifluoroacetate], the melting point fell in the range of 73 to 75 °C. The IC50 in data set [1] (setting [2]) was < 500 nM.
With `Cc1ccccc1NC(=O)Nc1ccc(CC(=O)N(CC(=O)Nc2ccc(C(=O)O)cc2)Cc2ccccn2)cc1` [Example 70, 4-{[N-{[4-({[(2-methylphenyl)amino]carbonyl}amino)phenyl]acetyl}-N-(2-pyridinylmethyl)glycyl]amino}benzoic acid], the IC50 in data set [1] (Ramos) is < 500 nM.
Take `Cc1ccccc1NC(=O)Nc1ccc(CC(=O)N(CC(=O)Nc2ccc(C(=O)O)cc2)Cc2ccncc2)cc1` [Example 71, 4-{[N-{[4-({[(2-methylphenyl)amino]carbonyl}amino)phenyl]acetyl}-N-(4-yridinylmethyl)glycyl]amino}benzoic acid]: in data set [1] (Ramos), the IC50 is < 500 nM.
On the same count and under the same terms, next, `Cc1ccccc1NC(=O)Nc1ccc(CC(=O)N(CCc2c[nH]cn2)CC(=O)Nc2ccc(C(=O)O)cc2)cc1` [Example 72, 4-[(N-[2-(1H-imidazol-4-yl)ethyl]-N-{[4-({[(2-methylphenyl)amino]carbonyl}amino)phenyl]acetyl}glycyl)amino]benzoic acid]: < 500 nM; `Cc1ccccc1NC(=O)Nc1ccc(CC(=O)N(CCc2ccccn2)CC(=O)Nc2ccc(C(=O)O)cc2)cc1` [Example 73, 4-({N-{[4-({[(2-methylphenyl)amino]carbonyl}amino)phenyl]acetyl}-N-[2-(2-pyridinyl)ethyl]glycyl}amino)benzoic acid]: < 500 nM; `COc1cc(CCN(CC(=O)Nc2ccc(C(=O)O)cc2)C(=O)Cc2ccc3nc(Nc4ccccc4)oc3c2)cc(OC)c1` [Example 77, 4-({N-[(2-anilino-1,3-benzoxazol-6-yl)acetyl]-N-[2-(3,5-dimethoxyphenyl)-ethyl]glycyl}amino)benzoic acid]: < 500 nM.
`O=C(CN(CCCN1CCCC1)C(=O)Cc1ccc2nc(Nc3ccccc3)oc2c1)Nc1ccc(C(=O)O)cc1` [Example 84]: the IC50 in data set [1] (Ramos) was 500 to 2000 nM.
Still for that read-out and setting: the result for `COc1cccc(CCN(CC(=O)Nc2ccc(C(=O)O)cc2)C(=O)Cc2ccc(NC(=O)Nc3ccccc3C)cc2)c1` [Example 85, 4-[(N-[2-(3-methoxyphenyl)ethyl]-N-{[4-({[(2-methylphenyl)amino]-carbonyl}amino)phenyl]acetyl}glycyl)amino]benzoic acid] reads < 500 nM.
On to `Cc1ccccc1NC(=O)Nc1ccc(CC(=O)N(CC(=O)Nc2ccc(C(=O)O)cc2)Cc2ccccc2)cc1` [Example 86, 4-[(N-benzyl-N-{[4-({[(2-methylphenyl)amino]carbonyl}amino)phenyl]-acetyl}glycyl)amino]benzoic acid], for which the IC50 in data set [1] (Ramos) was < 500 nM.
`COc1cccc(CCN(CC(=O)Nc2ccc(C(=O)O)cc2)C(=O)Cc2ccc3nc(Nc4ccccc4)oc3c2)c1` [Example 87, 4-({N-[(2-anilino-1,3-benzoxazol-6-yl)acetyl]-N-[2-(3-methoxyphenyl)ethyl]-glycyl}amino)benzoic acid]: the IC50 in data set [1] (Ramos) is < 500 nM.
Turning to `Cc1ccccc1NC(=O)Nc1ccc(CC(=O)N[C@@H](Cc2ccccc2)C(=O)Nc2ccc(C(=O)O)cc2)cc1` [Example 88, 4-[(N-{[4-({[(2-methylphenyl)amino]carbonyl}amino)phenyl]acetyl}-L-phenylalanyl)amino]benzoic acid], in data set [1] (Ramos), the IC50 was < 500 nM.
`O=C(Cc1ccc2nc(Nc3ccccc3)oc2c1)N[C@@H](Cc1ccccc1)C(=O)Nc1ccc(C(=O)O)cc1` [Example 89, 4-({N-[(2-anilino-1,3-benzoxazol-6-yl)acetyl]-L-phenylalanyl}amino)benzoic acid]: the IC50 in data set [1] (Ramos) was < 500 nM.
As for `Cc1ccccc1NC(=O)Nc1ccc(CC(=O)N[C@@H](Cc2ccc(Br)cc2)C(=O)Nc2ccc(C(=O)O)cc2)cc1` [Example 90, 4-[(4-bromo-N-{[4-({[(2-methylphenyl)amino]carbonyl}amino)phenyl]-acetyl}-L-phenylalanyl)amino]benzoic acid], in data set [1] (Ramos), the IC50 was < 500 nM.
Consider `O=C(Cc1ccc2nc(Nc3ccccc3)oc2c1)N[C@@H](Cc1ccc(Br)cc1)C(=O)Nc1ccc(C(=O)O)cc1` [Example 91], for which the IC50 in data set [1] (Ramos) was 500 to 2000 nM.
On the same count and under the same terms, the result for `O=C(CN(Cc1ccccc1)C(=O)Cc1ccc2nc(Nc3ccccc3)oc2c1)Nc1ccc(C(=O)O)cc1` [Example 92] reads 500 to 2000 nM.

The values above are taken from patent publication US20050054582A1, “Para-amino benzoic acids as integrin antagonists” (priority 2001, published 2005).
